Laboratory results as given in patent US20220267300A1 (NodThera Limited, priority 2019, published 2022).
pIC50: −log10 of the molar value.

Each molecule was assayed on IL-1β release upon NLRP3 activation in peripheral blood mononuclear cells (PBMC) (assay: PBMC IC50 determination assay (inhibition of IL-1β release)). Conditions: Homo sapiens; IL-1β release from LPS-primed PBMC stimulated with ATP (5 mM) or nigericin (10 μM); ELISA or HTRF; corresponding sodium salts evaluated.
Assay type: cell-based
Experimental: The compounds of the present disclosure were tested for their inhibitory activity against IL-1β release upon NLRP3 activation in peripheral blood mononuclear cells (PBMC).
Protocol A. PBMC were isolated from buffy coats by density gradient centrifugation on Histopaque-1077 (Sigma, cat no. 10771). Isolated cells were seeded into the wells of a 96-well plate and incubated for 3 h with lipopolysaccharide (LPS). Following medium exchange, the compounds of the present disclosure were added (a single compound per well) and the cells were incubated for 30 min. Next, the cells were stimulated either with ATP (5 mM) or nigericin (10 μM) for 1 h and the cell culture media from the wells were collected for further analysis.
The release of IL-1β into the media was determined by a quantitative detection of IL-1β in the media using an IL-1β enzyme-linked immunosorbent assay (ELISA) Ready-SET-Go!, eBioscience cat. No. 88-7261-88. Briefly, in a first step, high affinity binding plates (Corning, Costar 9018 or NUNC Maxisorp Cat No. 44-2404) were coated overnight at 4° C. with specific capture antibody included in the kit (anti-human IL-1β ref. 14-7018-68). Subsequently, plates were blocked with blocking buffer for 1 h at room temperature (rt) and after washing with a buffer (PBS with 0.05% Tween-20) incubated with protein standard and culture media. After 2 h of incubation at rt, plates were washed and incubated with biotinylated detection antibody included in the kit (anti-human IL-1β Biotin ref. 33-7110-68) for 1 h at rt. Plates were washed and incubated with HRP-streptavidin for 30 min at rt and washed again. The signal was developed after addition of 3,3′,5,5′-tetramethylbenzidine-peroxidase (TMB) until colour appeared and the reaction was stopped by 2 M H2SO4. A microplate spectrophotometer (BioTek) was used to detect signals with 450 nm. The detection range of IL-1β ELISA was 2-150 ng/ml.
Protocol B. PBMC were isolated from buffy coats by density gradient centrifugation on Histopaque-1077 (Sigma, cat no. 10771). Isolated cells were seeded into the wells (280,000 cells/well) of a 96-well plate and incubated for 3 h with lipopolysaccharide (LPS, 1 μg/ml diluted 1000× from a 1 mg/ml stock solution). The compounds of the present disclosure were added (a single compound per well) and the cells were incubated for 30 min. Next, the cells were stimulated with ATP (5 mM final concentration diluted 20× from a 100 mM stock solution) for 1 h and the cell culture media from the wells were collected for further analysis.
The release of IL-1β into the media was determined by quantitative detection of IL-1β in the media using HTRF®, CisBio cat. No. 62HIL1BPEH. Briefly, cell culture supernatant were dispensed directly into the assay plate containing antibodies labelled with the HTRF® donor and acceptor. A microplate spectrophotometer (BMG) was used to detect signals at 655 nm and 620 nm. The detection range of IL-1β HTRF® was 39-6500 pg/ml.

SMILES	pIC50
CN1CCC[C@H]1CN(c1cnn(C)c1)S(=O)(=O)NC(=O)Cc1cc(Cl)cc(C(C)(C)C)c1 (stereo in doubt) [Example 56]	≤ 4.30
CC(C)c1cc(F)cc(C(C)C)c1CC(=O)NS(=O)(=O)N(c1cnn(C)c1)C1CCCN(C)C1 (stereo not drawn) [Example 1, 2-[4-Fluoro-2,6-bis(propan-2-yl)phenyl]-N-[(1-methyl-1H-pyrazol-4-yl)(1-methylpiperidin-3-yl)sulfamoyl]acetamide]	4.30 to 5.00
Cc1cc(CC(=O)NS(=O)(=O)N(c2cnn(C)c2)C2CCCN(C)C2)cc(C(F)(F)F)c1 (stereo not drawn) [Example 2, N-[(1-Methyl-1H-pyrazol-4-yl)(1-methylpiperidin-3-yl)sulfamoyl]-2-[3-methyl-5-(trifluoromethyl)phenyl]acetamide]	4.30 to 5.00
CC(C)c1cc(CC(=O)NS(=O)(=O)N(c2cnn(C)c2)C2CCCN(C)C2)cc(C(C)C)c1 (stereo not drawn) [Example 3]	4.30 to 5.00
CN1CCCC(N(c2cnn(C)c2)S(=O)(=O)NC(=O)Cc2cc(Cl)cc(C(F)(F)F)c2)C1 (stereo not drawn) [Example 4, 2-[3-Chloro-5-(trifluoromethyl)phenyl]-N-[(1-methyl-1H-pyrazol-4-yl)(1-methylpiperidin-3-yl)sulfamoyl]acetamide]	4.30 to 5.00
CC(C)c1cc(CC(=O)NS(=O)(=O)N(C[C@@H]2CCCN2C)c2cnn(C)c2)cc(C(C)C)c1 [Example 5, 2-[3,5-Bis(propan-2-yl)phenyl]-N-[(1-methyl-1H-pyrazol-4-yl)({[(2S)-1-methylpyrrolidin-2-yl]methyl})sulfamoyl]acetamide]	> 6.00
CN1CCCC(N(c2cnn(C)c2)S(=O)(=O)NC(=O)Cc2cc(C(F)(F)F)cc(C(F)(F)F)c2)C1 (stereo not drawn) [Example 6, 2-[3,5-Bis(trifluoromethyl)phenyl]-N-[(1-methyl-1H-pyrazol-4-yl)(1-methylpiperidin-3-yl)sulfamoyl]acetamide]	> 6.00
Cc1noc(N(C2CCCN(C)C2)S(=O)(=O)NC(=O)Cc2cc(C(C)C)cc(C(C)C)c2)c1C (stereo not drawn) [Example 7, 2-[3,5-Bis(propan-2-yl)phenyl]-N-[(3,4-dimethyl-1,2-oxazol-5-yl)(1-methylpiperidin-3-yl)sulfamoyl]acetamide]	> 6.00
CC(C)c1cc(Cl)cc(CC(=O)NS(=O)(=O)N(C[C@@H]2CCCN2C)c2cnn(C)c2)c1 [Example 8, 2-[3-Chloro-5-(propan-2-yl)phenyl]-N-[(1-methyl-1H-pyrazol-4-yl)({[(2S)-1-methylpyrrolidin-2-yl]methyl})sulfamoyl]acetamide]	5.52 to 6.00
CC(C)c1cc(CC(=O)NS(=O)(=O)N(C[C@@H]2CCCN2C)c2cnn(C)c2)cc(C(C)C)c1F [Example 9, 2-[4-Fluoro-3,5-bis(propan-2-yl)phenyl]-N-[(1-methyl-1H-pyrazol-4-yl)({[(2S)-1-methylpyrrolidin-2-yl]methyl})sulfamoyl]acetamide]	4.30 to 5.00
CC(C)c1cc(CC(=O)NS(=O)(=O)N(C[C@@H]2CCCN2C)c2cnn(C)c2)cc(C(F)(F)F)c1 [Example 10, N-[(1-Methyl-1H-pyrazol-4-yl)({[(2S)-1-methylpyrrolidin-2-yl]methyl})-sulfamoyl]-2-[3-(propan-2-yl)-5-(trifluoromethyl)phenyl]acetamide]	5.00 to 5.52
CN1CCC[C@H]1CN(c1cnn(C)c1)S(=O)(=O)NC(=O)Cc1c2c(cc3c1CCC3)CCC2 [Example 11, 2-(1,2,3,5,6,7-Hexahydro-s-indacen-4-yl)-N-[(1-methyl-1H-pyrazol-4-yl)({[(2S)-1-methylpyrrolidin-2-yl]methyl})sulfamoyl]acetamide]	> 6.00
CC(C)c1ccc(Cl)c(C(C)C)c1CC(=O)NS(=O)(=O)N(C[C@@H]1CCCN1C)c1cnn(C)c1 [Example 12, 2-[3-Chloro-2,6-bis(propan-2-yl)phenyl]-N-[(1-methyl-1H-pyrazol-4-yl)({[(2S)-1-methylpyrrolidin-2-yl]methyl})sulfamoyl]acetamide]	5.00 to 5.52
CN1CCCC(N(c2cnn(C)c2)S(N)(=O)=NC(=O)Cc2c3c(cc4c2CCC4)CCC3)C1 (stereo not drawn) [Example 13, N-{Amino[(1-methyl-1H-pyrazol-4-yl)(1-methylpiperidin-3-yl)amino]oxo-lambda6-sulfanylidene}-2-(1,2,3,5,6,7-hexahydro-s-indacen-4-yl)acetamide]	5.00 to 5.52
CC(C)c1cc(CC(=O)NS(=O)(=O)N(c2cnn(C)c2)C2CCCN(C)C2)c(C(C)C)s1 (stereo not drawn) [Example 14, 2-[2,5-Bis(propan-2-yl)thiophen-3-yl]-N-[(1-methyl-1H-pyrazol-4-yl)(1-methylpiperidin-3-yl)sulfamoyl]acetamide]	> 6.00
CC(C)c1cc(CC(=O)N=S(N)(=O)N(c2cnn(C)c2)C2CCCN(C)C2)c(C(C)C)s1 (stereo not drawn) [Example 15, N-{Amino[(1-methyl-1H-pyrazol-4-yl)(1-methylpiperidin-3-yl)amino]oxo-lambda6-sulfanylidene}-2-[2,5-bis(propan-2-yl)thiophen-3-yl]acetamide]	4.30 to 5.00
CCc1cc(CC(=O)NS(=O)(=O)N(c2cnn(C)c2)C2CCCN(C)C2)cc(C(F)(F)F)c1 (stereo not drawn) [Example 16, 2-[3-Ethyl-5-(trifluoromethyl)phenyl]-N-[(1-methyl-1H-pyrazol-4-yl)(1-methylpiperidin-3-yl)sulfamoyl]acetamide]	5.00 to 5.52
CN1CCCC(N(c2cnn(C)c2)S(=O)(=O)NC(=O)Cc2c3c(cc4c2CCC4)CCC3)C1 (stereo not drawn) [Example 17, 2-(1,2,3,5,6,7-Hexahydro-s-indacen-4-yl)-N-[(1-methyl-1H-pyrazol-4-yl)(1-methylpiperidin-3-yl)sulfamoyl]acetamide]	> 6.00
CN(C)CCN(c1cnn(C)c1)S(=O)(=O)NC(=O)Cc1c2c(cc3c1CCC3)CCC2 [Example 18, N-{[2-(Dimethylamino)ethyl](1-methyl-1H-pyrazol-4-yl)sulfamoyl}-2-(1,2,3,5,6,7-hexahydro-s-indacen-4-yl)acetamide]	5.52 to 6.00
Cn1cc(N(C2CCCN(C(=O)OCc3ccccc3)C2)S(=O)(=O)NC(=O)Cc2c3c(cc4c2CCC4)CCC3)cn1 (stereo not drawn) [Example 19, Benzyl 3-({[2-(1,2,3,5,6,7-hexahydro-s-indacen-4-yl)acetamido]sulfonyl}(1-methyl-1H-pyrazol-4-yl)amino)piperidine-1-carboxylate]	5.00 to 5.52
Cn1cc(N(C2CCCNC2)S(=O)(=O)NC(=O)Cc2c3c(cc4c2CCC4)CCC3)cn1 (stereo not drawn) [Example 20, 2-(1,2,3,5,6,7-Hexahydro-s-indacen-4-yl)-N-[(1-methyl-1H-pyrazol-4-yl)(piperidin-3-yl)sulfamoyl]acetamide]	5.52 to 6.00
Cn1cc(N(CCNC(=O)OCc2ccccc2)S(=O)(=O)NC(=O)Cc2c3c(cc4c2CCC4)CCC3)cn1 [Example 21]	5.00 to 5.52
Cn1cc(N(CCN)S(=O)(=O)NC(=O)Cc2c3c(cc4c2CCC4)CCC3)cn1 [Example 22, N-[(2-Aminoethyl)(1-methyl-1H-pyrazol-4-yl)sulfamoyl]-2-(1,2,3,5,6,7-hexahydro-s-indacen-4-yl)acetamide]	4.30 to 5.00
CC(=O)NCCN(c1cnn(C)c1)S(=O)(=O)NC(=O)Cc1c2c(cc3c1CCC3)CCC2 [Example 23, N-[(2-Acetamidoethyl)(1-methyl-1H-pyrazol-4-yl)sulfamoyl]-2-(1,2,3,5,6,7-hexahydro-s-indacen-4-yl)acetamide]	4.30 to 5.00
